Values of other authors in US20090062268A1, “NOVEL INHIBITORS OF POLY(ADP-RIBOSE)POLYMERASE (PARP)” (LEAD THERAPEUTICS, INC., priority 2007, published 2009).
Like-named read-outs stand apart in the source and are kept apart here.

Key:
[1] = molecular target: PARP-1 (Homo sapiens, UniProt P09874); settings: Farmer et al., Nature 2005
[2] = test system: BRCA2-deficient cell line V-C8; settings: BRCA2-deficient V-C8 compared with the BRCA2 wild type control
[3] = test system: CAPAN-1 cells; settings: CAPAN-1 cells in DMEM with FCS (20% v/v), glutamine and antibiotics
[4] = test system: BRCA2-deficient tumors

Chain of PARP-1 (P09874 whole entry, species assumed): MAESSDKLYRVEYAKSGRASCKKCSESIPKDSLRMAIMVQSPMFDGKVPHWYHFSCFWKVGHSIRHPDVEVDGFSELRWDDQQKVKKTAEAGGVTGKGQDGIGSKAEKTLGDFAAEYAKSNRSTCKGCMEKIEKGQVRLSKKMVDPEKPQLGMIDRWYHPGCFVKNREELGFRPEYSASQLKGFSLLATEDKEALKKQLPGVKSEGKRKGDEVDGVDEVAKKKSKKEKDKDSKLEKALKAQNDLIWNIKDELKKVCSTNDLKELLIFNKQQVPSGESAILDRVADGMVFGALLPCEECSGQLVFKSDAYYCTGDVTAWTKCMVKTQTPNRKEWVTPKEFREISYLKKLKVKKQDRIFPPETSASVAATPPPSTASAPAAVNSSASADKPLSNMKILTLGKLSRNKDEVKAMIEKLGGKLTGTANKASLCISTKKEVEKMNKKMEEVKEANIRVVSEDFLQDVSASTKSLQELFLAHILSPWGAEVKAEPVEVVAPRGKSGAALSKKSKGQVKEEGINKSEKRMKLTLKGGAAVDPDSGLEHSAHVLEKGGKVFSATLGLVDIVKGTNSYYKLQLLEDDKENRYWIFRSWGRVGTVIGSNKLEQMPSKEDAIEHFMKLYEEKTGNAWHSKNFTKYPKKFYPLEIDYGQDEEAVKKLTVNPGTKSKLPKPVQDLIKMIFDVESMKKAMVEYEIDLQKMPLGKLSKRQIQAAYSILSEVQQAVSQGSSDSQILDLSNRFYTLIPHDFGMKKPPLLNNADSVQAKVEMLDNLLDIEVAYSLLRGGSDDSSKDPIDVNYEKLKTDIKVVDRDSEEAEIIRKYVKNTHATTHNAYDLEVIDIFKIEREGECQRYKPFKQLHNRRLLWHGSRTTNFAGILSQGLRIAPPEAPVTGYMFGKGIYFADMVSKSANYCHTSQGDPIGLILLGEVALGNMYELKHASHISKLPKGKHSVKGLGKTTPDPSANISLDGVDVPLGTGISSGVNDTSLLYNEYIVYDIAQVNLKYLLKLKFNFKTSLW

Structure (SMILES): CN(C)Cc1ccc(-c2nc3cccc4c3n2CCNC4=O)cc1 [AG14361]
- Ki ([1]; PARP-1 inhibitor): 5 nM
- sensitivity in clonogenic survival assay [2]: exhibited sensitivity

Structure (SMILES): Cc1nc2c(O)cccc2c(=O)[nH]1 [NU1025]
- Ki ([1]; moderately potent PARP-1 inhibitor): 50 nM
- sensitivity in clonogenic survival assay [2]: exhibited sensitivity

Structure (SMILES): O=C1CCC(=O)N1c1cc(Cc2n[nH]c(=O)c3ccccc23)ccc1F [KU0058684]
- sensitivity to PARP inhibition in clonogenic survival assay [3]: showing sensitivity
- in vivo efficacy, tumor growth [4]: in vivo efficacy in blocking the growth of BRCA2-deficient tumors
